Where two headings read alike, the source gives them in different places.
Experiments:
[1] = molecular target: T1, CBL-B (residues 36-427) (Homo sapiens, UniProt Q13191); test: Ligand Displacement Assay (LDA), HTRF competitive binding against BODIPY-labeled fluorescent tracer, CBL-B; conditions: geometric mean of the number of tests, read-out: CBL-B Ki (nM) GMean
T1 construct: Purified CBL-B (residues 36-427) and C-CBL (residues 46-435) proteins from baculovirus-infected insect cells; made in house; host or cells: baculovirus-infected insect cells
Procedure, shortened: (§1)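 First, the insect-cell-expressed protein is biotinylated at its amino-terminal AviTag with BirA and coupled to SA-Tb. Next, the tracer KD is determined for each protein. Finally, compounds are titrated three-fold in duplicate […], at 2% DMSO, and Ki is reported as a geometric mean.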

[2] = molecular target: T2, C-CBL (residues 46-435) (Homo sapiens, UniProt P22681); test: Ligand Displacement Assay (LDA), HTRF competitive binding against BODIPY-labeled fluorescent tracer, C-CBL; conditions: geometric mean of the number of tests, read-out: C-CBL Ki (nM) GMean
T2 construct: Purified CBL-B (residues 36-427) and C-CBL (residues 46-435) proteins from baculovirus-infected insect cells; made in house; host or cells: baculovirus-infected insect cells
T2 sequence (P22681 46-435): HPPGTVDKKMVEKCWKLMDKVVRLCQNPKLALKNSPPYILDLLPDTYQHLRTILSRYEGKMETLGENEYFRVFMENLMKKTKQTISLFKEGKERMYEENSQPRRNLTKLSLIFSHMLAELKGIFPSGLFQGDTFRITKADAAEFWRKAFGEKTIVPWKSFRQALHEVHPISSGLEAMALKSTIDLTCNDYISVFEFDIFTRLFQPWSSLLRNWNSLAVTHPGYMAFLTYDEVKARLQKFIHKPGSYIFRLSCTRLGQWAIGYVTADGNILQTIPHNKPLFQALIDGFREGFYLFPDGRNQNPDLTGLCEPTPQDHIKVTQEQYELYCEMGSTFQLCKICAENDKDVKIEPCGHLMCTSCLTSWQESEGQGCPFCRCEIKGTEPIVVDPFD
Procedure, shortened: as §1

[3] = molecular target: T3, CBL-B (Homo sapiens, UniProt Q13191); test: Jurkat HiBit-IL2 assay (c-CBL KO), reporter cell line expressing CBL-B only; format: cell-based; conditions: geometric mean, read-out: C-CBL KO EC50 (nM) GMean
T3 construct: endogenous in cells; host or cells: Jurkat HiBit-IL2 reporter cells, C-CBL knocked out by CRISPR
From the text: Jurkat HiBit-IL2 Assay (WT, c-CBL KO, CBL-B KO)
The purpose of the Jurkat HiBit-IL2 assay is to evaluate the effect of the inhibition of CBL-B and/or C-CBL on TCR/CD28 stimulated interleukin-2 (IL-2) secretion.
The expression of IL-2 can then be accurately measured by HiBit luciferase assay. Further, C-CBL or CBL-B was knocked out by CRISPR respectively in this Jurkat HiBit-IL2 reporter cell line to create reporter cell line expressing CBL-B only (c-CBL knockout (KO)) or C-CBL only (CBL-B KO).
All three reporter cell lines were maintained in RPMI-1640 media with GlutaMax, 10% fetal bovine serum, 100 units/ml of penicillin, and 100 μg/ml of streptomycin at 37° C., 5% CO2, at a cell density 1×10e5-2×10e6 viable cells/ml. Serial diluted compounds in DMSO (40 nl/well, final 0.1% DMSO in assay cell culture) were plated into 384-well white-wall clear-bottom cell culture plates. Reporter cells were pelleted and resuspended in fresh cell culture medium to 0.66×10e6 cells/ml and added to the assay plate at 30 μl/well (20,000 cells/well). The cells were incubated with compounds for 1 hour at 37° C., 5% CO2. 10 μl/well of anti-CD3 antibody (OKT3) and anti-CD28 antibody (CD28.2) prediluted in fresh cell culture medium at 4× final concentration (anti-CD3 mAb: 4 μg/ml; anti-CD28 mAb: 8 μg/ml) was added into the cells (final concentration of anti-CD3 mAb: 1 μg/ml; anti-CD28 mAb: 2 μg/ml). The cells were cultured for another 4 hours at 37° C., 5% CO2. The Nano-Glo HiBiT Lytic Reagent was prepared following the manufacturer's protocol. 20 ul/well of the Nano-Glo HiBiT Lytic Reagent was added into the reporter cell culture assay plate and incubated at room temperature (20-25° C.) for 15 minutes. The plates were read on a Perkin-Elmer EnVision plate reader with 0.1 second integration time. Data were normalized to “Fold of Effect” with the anti-CD3 and anti-CD28 antibodies only samples as the baseline activation level and EC50 was calculated. The EC50 (nM) values reported are the geometric means (GMean) of the number of tests conducted.

[4] = molecular target: T4, C-CBL (Homo sapiens, UniProt P22681); test: Jurkat HiBit-IL2 assay (CBL-B KO), reporter cell line expressing C-CBL only; format: cell-based; conditions: geometric mean, read-out: CBL-B KO EC50 (nM) GMean
T4 construct: endogenous in cells; host or cells: Jurkat HiBit-IL2 reporter cells, CBL-B knocked out by CRISPR
Procedure, shortened: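 CRISPR knockout Jurkat HiBit-IL2 reporter cells (20,000/well) were preincubated 1 h with compounds (0.1% DMSO), then stimulated 4 h at 37 °C with anti-CD3 (1 μg/ml) and anti-CD28 (2 μg/ml) final. IL-2 was read by HiBiT lytic luminescence, normalized as fold over antibody-only baseline; EC50 reported as geometric mean.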

[5] = C-CBL KO (expressing CBL-B only), Table 16b (further repetition)
[6] = CBL-B KO (expressing C-CBL only), Table 16b (further repetition)
[7] = c-CBL KO (CBL-B only), anti-CD3/anti-CD28 stimulation 4 hours, Table 16a
[8] = CBL-B KO (C-CBL only), anti-CD3/anti-CD28 stimulation 4 hours, Table 16a

Row | SMILES | Ki [1] | Ki [2] | EC50 [3, 5] | EC50 [4, 6] | EC50 [3, 7] | EC50 [4, 8]
1 | C[C@H](NC1CCC1)c1nc(C(F)(F)F)cc2c(-c3cccc([C@H](c4nncn4C)C4COC4)c3)n[nH]c12 (single isomer, unassigned) [Example C123, N-{(1ξ)-1-[3-{3-[(ξ)-(4-methyl-4H-1,2,4-triazol-3-yl)(oxetan-3-yl)methyl]phenyl}-5-(trifluoromethyl)-1H-pyrazolo[3,4-c]pyridin-7-yl]ethyl}cyclobutanamine] | 19.5 nM | 189 nM | 185 nM | 1070 nM | – | –
2 | CC(NCCO)c1nc(C(F)(F)F)cc2c(-c3cccc([C@H](c4nncn4C)C4CCCCC4)c3)n[nH]c12 (single isomer, unassigned) [Example C39] | 7.4 nM | 73.2 nM | 108 nM | 615 nM | 35 nM | 496 nM
3 | C[C@H](N[C@@H]1COC[C@H]1O)c1nc(C(F)(F)F)cc2c(-c3cccc([C@H](c4nncn4C)C4CCC4)c3)n[nH]c12 (single isomer, unassigned) [Example D59] | 2.6 nM | 26.6 nM | 267 nM | 1260 nM | – | –
4 | CC(O)CNC(C)c1nc(C2CC2)cc2c(-c3cccc(C(c4nncn4C)C4CCC4)c3)n[nH]c12 (single isomer, unassigned) [Example H2] | 1.4 nM | 18.3 nM | 41 nM | 165 nM | 17 nM | 232 nM
5 | C[C@H](c1nc(C(F)(F)F)cc2c(-c3cccc([C@H](c4nncn4C)C4CCC4)c3)n[nH]c12)N1CC[C@H]1CO (single isomer, unassigned) [Example D65] | 13.7 nM | 110 nM | 468 nM | 1180 nM | – | –
6 | CC(NC(=O)[C@@H](C)O)c1nc(C(F)(F)F)cc2c(-c3cccc([C@H](c4nncn4C)C4CCC4)c3)n[nH]c12 (single isomer, unassigned) [Example I5] | 2.7 nM | 22.9 nM | 62 nM | 299 nM | – | –
7 | C[C@H](NC(C)(C)CO)c1nc(C(F)(F)F)cc2c(-c3cccc([C@H](c4nncn4C)C4CCC4)c3)n[nH]c12 (single isomer, unassigned) [Example D17] | 1.4 nM | 33.2 nM | 43 nM | 552 nM | 19 nM | 270 nM
8 | CC(NCCO)c1nc(C(F)(F)F)cc2c(-c3cccc([C@H](c4nncn4C)C4CCCCC4)c3)n[nH]c12 (single isomer, unassigned) [Example C40] | 7.1 nM | 95.9 nM | 214 nM | 1560 nM | 47 nM | 1360 nM
9 | C[C@@H](CO)N[C@H](C)c1nc(C(F)(F)F)cc2c(-c3cccc([C@H](c4nncn4C)C4CCC4)c3)n[nH]c12 (single isomer, unassigned) [Example D63] | 8.4 nM | 67 nM | 121 nM | 577 nM | – | –
10 | C[C@@H](c1nc(C(F)(F)F)cc2c(-c3cccc([C@H](c4nncn4C)C4CCC4)c3)n[nH]c12)N1CC[C@H](O)C1 (single isomer, unassigned) [Example D71] | 1.3 nM | 13 nM | 77 nM | 434 nM | – | –
11 | C[C@H](N[C@@H](C)CO)c1nc(C(F)(F)F)cc2c(-c3cccc([C@H](c4nncn4C)C4CCC4)c3)n[nH]c12 (single isomer, unassigned) [Example D27] | 1 nM | 9.1 nM | 24 nM | 209 nM | 11 nM | 194 nM
12 | C[C@@H](c1nc(C(F)(F)F)cc2c(-c3cccc([C@H](c4nncn4C)C4CCC4)c3)n[nH]c12)N1CC[C@H]1CO (single isomer, unassigned) [Example D64] | 8.7 nM | 58 nM | 134 nM | 483 nM | – | –
13 | CC(NC(=O)CO)c1nc(C(F)(F)F)cc2c(-c3cccc([C@H](c4nncn4C)C4CCC4)c3)n[nH]c12 (single isomer, unassigned) [Example I2] | 7.8 nM | 64.5 nM | – | – | 313 nM | 2420 nM
14 | CC(NC1CCC1)c1nc(C2CC2)cc2c(-c3cccc(C4(Cc5nncn5C)COC4)c3)n[nH]c12 (single isomer, unassigned) [Example H3, N-{(1ξ)-1-[5-cyclopropyl-3-(3-{3-[(4-methyl-4H-1,2,4-triazol-3-yl)methyl]oxetan-3-yl}phenyl)-1H-pyrazolo[3,4-c]pyridin-7-yl]ethyl}cyclobutanamine] | 8.1 nM | 28.8 nM | 231 nM | 415 nM | 49 nM | 392 nM
15 | C[C@H](NC1(CO)CCC1)c1nc(C(F)(F)F)cc2c(-c3cccc([C@H](c4nncn4C)C4CCC4)c3)n[nH]c12 (single isomer, unassigned) [Example D72] | 8.7 nM | 116 nM | 103 nM | 563 nM | – | –
16 | C[C@H](N[C@@H]1CC[C@H]1O)c1nc(C(F)(F)F)cc2c(-c3cccc([C@H](c4nncn4C)C4CCC4)c3)n[nH]c12 (single isomer, unassigned) [Example D23] | 1.8 nM | 9.9 nM | 21 nM | 124 nM | 6 nM | 63 nM
17 | C[C@H](c1nc(C(F)(F)F)cc2c(-c3cccc([C@H](c4nncn4C)C4CCC4)c3)n[nH]c12)N1CC[C@@H](O)C1 (single isomer, unassigned) [Example D69] | 9.3 nM | 54.3 nM | 154 nM | 490 nM | – | –
